In brackets after ≈: the same amount, converted by molar mass. Each block holds one compound with its values, some of them ahead of it. Activity calls are given as the source filed them. The rule behind the calls is not given here.
Legend:
[1] = test system: Leishmania donovani; test: Antiprotozoal activity against Leishmania donovani MHOM-ET-67/L82 amastigotes incubated for 72 hrs by microplate reader analysis; type: functional, organism-based; settings: MHOM-ET-67/L82, 72 h
[2] = Cytotoxicity against human MCF7 cells assessed as reduction in cell viability after 48 hrs by MTT assay; type: toxicity, cell-based
[3] = test system: Trypanosoma cruzi; test: Antiprotozoal activity against Trypanosoma cruzi Tulahuen C4 amastigotes measured after 96 hrs by microplate reader analysis; type: functional, organism-based; settings: Tulahuen C4, 96 h
[4] = test system: Caenorhabditis elegans; test: Anthelmintic activity against Caenorhabditis elegans N2 Bristol assessed as mortality at 40 mM relative to control
[5] = test system: Caenorhabditis elegans; test: Anthelmintic activity against Caenorhabditis elegans N2 Bristol assessed as lethality on young adult worms at 10 mM incubated for 48 hrs; type: functional, organism-based
[6] = test system: Trypanosoma brucei; test: Antiprotozoal activity against bloodstream form Trypanosoma brucei STIB 900 trypomastigotes […] by microplate reader analysis; type: functional, organism-based
[7] = test system: Plasmodium falciparum; test: Antiprotozoal activity against Plasmodium falciparum NF54 intraerythrocytic forms incubated for 48 hrs by 3H-hypoxanthine incorporation assay; type: functional, organism-based
[8] = Cytotoxicity against rat L6 cells incubated for 72 hrs by Resazurin-dye based assay; type: toxicity, cell-based
[9] = test system: Caenorhabditis elegans; test: Anthelmintic activity against Caenorhabditis elegans N2 Bristol assessed as lethality; type: functional
[10] = test system: Caenorhabditis elegans; test: Anthelmintic activity against Caenorhabditis elegans N2 Bristol assessed as mortality at 10 mM relative to control; type: functional

IC50 [1]: 0.26 mg/L (≈ 0.638 µM)
SMILES: CCCCCCCCCCCCCCCCOP(=O)([O-])OCC[N+](C)(C)C [MILTEFOSINE]

SMILES: COC(=O)[C@@]1(c2cc3ccccc3[nH]2)COCC=C2CN(C)CC[C@@H]21 [6,7-SECO-ANGUSTILOBINE B]
IC50 at 48 h [2]: > 100 µM

IC50 [3]: 0.69 mg/L (≈ 2.65 µM)
SMILES: O=C(Cn1ccnc1[N+](=O)[O-])NCc1ccccc1 [BENZNIDAZOLE]

SMILES: COC(=O)C1=C2Nc3c(OC)cccc3[C@@]23CCN2C[C@@H](C(C)=O)[C@@H]1C[C@H]23
IC50 at 48 h [2]: > 100 µM

SMILES: c1ccc([C@H]2CN3CCSC3=N2)cc1 [LEVAMISOLE]
mortality at 40000 µM [4]: 71%

SMILES: C/C=C1/CN2CC[C@@]34C(=Nc5c(OC)cccc53)O/C=C(/C(=O)OC)[C@H]1CC24
IC50 at 48 h [2]: > 100 µM
Activity [5]: inactive

IC50 [6]: 20 mg/L (≈ 58.8 µM)
IC50 [3]: > 100 mg/L
IC50 [1]: 75 mg/L (≈ 220 µM)
IC50 [7]: 2.4 mg/L (≈ 7.05 µM)
SMILES: C=CC12OC[C@@]3(C(=O)OC)c4[nH]c5ccccc5c4C1NCCC23O
IC50 at 72 h [8]: 50 mg/L (≈ 147 µM)
IC50 at 48 h [2]: > 100 µM

SMILES: COC(=O)/C1=C/OC2=Nc3c(OC)cccc3[C@@]23CCN2C[C@@H](C(C)=O)[C@@H]1CC23
IC50 at 48 h [2]: > 100 µM

SMILES: COC(=O)[C@@]1(c2cc3ccccc3[nH]2)COC[C@H]2O[C@]23CN(C)CC[C@@H]31
IC50 at 48 h [2]: > 100 µM

SMILES: C=C[C@@]12CN3CC[C@]1(O)[C@@](C(=O)OC)(CO2)c1[nH]c2ccccc2c1C3
IC50 at 48 h [2]: 26 µM
Activity [5]: inactive

SMILES: COC(=O)C1=C2Nc3c(OC)cccc3[C@@]23CCN2C[C@@H]([C@H](C)O)[C@@H]1C[C@H]23
IC50 at 48 h [2]: > 100 µM
Activity [5]: inactive

SMILES: COC(=O)/C1=C/OC2=Nc3c(OC)cccc3[C@@]23CCN2C[C@@H]([C@H](C)O)[C@@H]1CC23
IC50 at 48 h [2]: > 100 µM
LC50 [9]: 400 µM
mortality at 10000 µM [10]: 100%

Reference: ChEMBL document CHEMBL5344423, “Alstoboonine, an Ulean-Type Indole Alkaloid from Alstonia boonei Leaves” (J Nat Prod, 2024)
